Results on four compounds are retold here after US4749700A, “Novel methods of administering antihistamines, antinausea and antiemetic pharmaceutical agents and novel dosage forms containing same” (priority 1987, dated 1988).

Structures can show the parent of a compound that is named as a salt. Where two headings read alike, the source gives them in different places.

The test system of one data set is nasal polyps. Particulars: cited from earlier work.
Data set [1] in a line: 4-way crossover study of metoclopramide hydrochloride (nasal, oral, intramuscular) in volunteer human subjects. Type of data set: in vivo. As to conditions: for Tmax: human, in vivo, Time to Peak. On the procedure:
A 4-way crossover study was conducted in eight volunteer human subjects to compare the effects of the nasal administration of 5 and 10 mg of metoclopramide hydrochloride in a gel formulation, 10 mg of the same agent in an oral formulation and 5 mg of the product intramuscularly. The nasal formulation had the following composition: […]
______________________________________
BENZYL ALCOHOL N.F. 1.500 ml
SODIUM CHLORIDE U.S.P. 0.800 grams
ACETIC ACID, N.F. 0.320 grams
SODIUM ACETATE U.S.P. 0.077 grams
SORBITOL SOLUTION U.S.P.
METOCLOPRAMIDE HCL 5.000 grams
WATER PURIFIED U.S.P. q.s.
The oral and intramuscular compositions were commercial formulations available from A.G. Robbins Pharmaceutical Company, Richmond, Va., under the name Reglan.
The study was extended to dosage levels of 20 mg and 40 mg by the intranasal route using the same compositions.

The next data set in a line: in vivo. Also noted: species or system Sprague-Dawley male rats. As to conditions: rat. On the procedure: Two Sprague-Dawley male rats each weighing 250 to 300 grams, anesthetized using sodium pentobarbital (50 mg/Kg of body weight), were administered nasally by micropipet a dosage level of 15 mg/Kg of body weight of the following composition:
216 mg metoclopramide.HCL (MCP.HCL)
895.2 mg polyethylene glycol (PEG 400)
The femoral artery was cannulated with heparinized polyethylene tubing (Clay Adams, PE-50) and blood samples were removed at the times indicated in Table 1.
The samples were analyzed by high pressure liquid chromatography (HPLC) as follows:
Column: Silica Column (4.6×250 mm)
Mobile Phase: CH2 Cl2 : MeOH:NH4 OH=90:10:0.5
Plasma (0.3 ml) was placed in a test tube and 0.1 ml of 1N NaOH was added. Four ml of methylene chloride was then added and the mixture shaken for 10 minutes on a reciprocal shaker, centrifuged for 3 minutes in an IEC clinical centrifuge and the upper layer removed by aspiration. A 3.0 ml aliquot of the methylene chloride layer was transferred to a second tube and evaporated to dryness with a streak of nitrogen gas. The resulting residue was then dissolved in 0.1 to 0.5 ml of mobile phase and submitted to HPLC analysis. […]

A further data set concerns nausea and vomiting. The experiment in a line: Intranasal metoclopramide for control of nausea and vomiting in cancer patients. Type of data set: in vivo, human. Particulars: intranasal 40 mg every four hours. On the procedure: The patient was a person with Stage IV ovarian cancer.
Because of repeated nausea and vomiting due to bowel obstruction and other factors, intranasal metoclopramide at 40 mg per dose every four hours was employed for control of symptoms.

Another data set relates to dogs. As to conditions: cited from earlier work.
In a further data set the test system is cats. Particulars: same or larger amounts into the sinus; cited from earlier work.

For the compound `CC1(C)O[C@@H]2C[C@H]3[C@@H]4C[C@H](F)C5=CC(=O)C=C[C@]5(C)[C@H]4[C@@H](O)C[C@]3(C)[C@]2(C(=O)CO)O1` [flunisolide], the topical antiinflammatory activity result with nasal polyps is “excellent topical antiinflammatory”. Moreover, in the data set with nasal polyps (nasal topical), the absorption entry is given as “not rapidly absorbed” and the systemic activity entry is given as “minimal systemic activity”.
By Tmax is commonly meant the time at which the peak concentration occurs. For `CCN(CC)CCNC(=O)c1cc(Cl)c(N)cc1OC` [metoclopramide hydrochloride], the pharmacokinetic profiles result in data set [1] (10 mg nasal, 10 mg P.O. and 5 mg I.M. compared) was “statistically identical”. In addition, the local toxicity result in data set [1] (during or after the study, 5 and 10 mg nasal, 10 mg P.O., 5 mg I.M.) is given as “No evidence of local toxicity”. In data set [1] (extended study, 20 mg and 40 mg intranasal), the “local or systemic toxicity” value is listed as “no evidence of either local or systemic toxicity”. In addition, the Tmax is 1.34 h in data set [1], 1.53 h in data set [1] (im), 1.62 h in data set [1] (po) and 0.25 h in “in vivo” (15 mg/kg). In addition, the “maintenance of high levels” value in the data set “in vivo” is reported as “maintained for a longer period of time”. The “time to achieve maximum levels” value in the data set “in vivo” is on record as “extended”. The Concentration in “in vivo” (15 mg/kg, 0.25 h) was 1.61 ± 0.23 ug/ml plasma; in “in vivo” (15 mg/kg, 0.5 h), 1.55 ± 0.18 ug/ml plasma; in “in vivo” (15 mg/kg, 0.75 h), 1.30 ± 0.18 ug/ml plasma; in “in vivo” (15 mg/kg, 1 h) it was 1.26 ± 0.3 ug/ml plasma; in the data set “in vivo” (15 mg/kg, 1.25 h), 1.62 ± 0.17 ug/ml plasma; in “in vivo” (15 mg/kg, 1.5 h), 1.63 ± 0.18 ug/ml plasma. For the same compound, the Concentration is 1.55 ± 0.26 ug/ml plasma in “in vivo” (15 mg/kg, 2 h) and 1.29 ± 0.28 ug/ml plasma in the data set “in vivo” (15 mg/kg, 4 h). The compound also yielded a concentration at 0.25 h in the data set “in vivo” (15 mg/kg, Concentration) of 850 ± 120 ng/mL. This compound yielded a concentration at 0.5 h in “in vivo” (15 mg/kg, Concentration) of 1370 ± 210 ng/mL. The compound further came in with a concentration at 0.75 h in the data set “in vivo” (15 mg/kg, Concentration) of 1510 ± 180 ng/mL. The concentration at 1 h in “in vivo” (15 mg/kg, Concentration) is 1610 ± 50 ng/mL. This compound returned a concentration at 1.25 h in the data set “in vivo” (15 mg/kg, Concentration) of 1110 ± 340 ng/mL. The compound also gave a concentration at 1.5 h in “in vivo” (15 mg/kg, Concentration) of 1040 ± 350 ng/mL. This compound also gave a concentration at 2 h in “in vivo” (15 mg/kg, Concentration) of 1100 ± 380 ng/mL. Moreover, in “in vivo” (15 mg/kg, Concentration), the concentration at 2.5 h is 1550 ± 210 ng/mL. Besides, the concentration at 3 h in “in vivo” (15 mg/kg, Concentration) worked out at 1090 ± 360 ng/mL. The compound also displayed a concentration at 4 h in the data set “in vivo” (15 mg/kg, Concentration) of 940 ng/mL.
`CCN(CC)CCNC(=O)c1cc(Cl)c(N)cc1OC` [metoclopramide]: the benefit from treatment entry in the data set with nausea and vomiting (five more cancer patients refractory to other antinausea treatments) was “All patients benefited from the treatment”. Besides, the control of nausea entry in the data set on nausea and vomiting (one patient, Stage IV ovarian cancer with bowel obstruction) was “contained their nausea between occasional bouts of vomiting”.
With `CN1CCCC1c1cccnc1` (centres unmarked) [nicotine], the pressor response result in the data set with dogs (injection of 1 mg) was “immediate and marked pressor response”; in the data set with dogs (same or larger amounts into the sinus), “little or no effect”; with cats, “little or no effect”.
